Converted amounts (≈) assume the structure as drawn.
Key:
Type in all cases: cell-based, Streptococcus pneumoniae
S. pneumoniae T4 = assay: Fitness outcome under antibiotic exposure (growth curve assay); conditions: for Fitness: S. pneumoniae T4 wild-type, 1xMIC antibiotic, growth curves; for Survive (real survival outcome): strain T4, Adapted FALSE
Description: (§1) To test whether a gene-panel model can be trained that predicts fitness for many different conditions, a large RNA-Seq dataset was generated for the human pathogen Streptococcus pneumoniae. […] These include cell wall synthesis inhibitors (CWSI), DNA synthesis inhibitors (DSI), protein synthesis inhibitors (PSI) and RNA synthesis inhibitors ((RSI); FIG. 1A, Tables 1 & 2). Each strain was exposed to each antibiotic for 2 to 4 hours and cells were harvested for RNA-Seq at various time points. As T4 and 19F are susceptible to most antibiotics used, the transcriptional profiles in the presence of antibiotics mostly represent cases of low fitness (FIG. 1A, sensitive strain, 1xMICWT). In order to find patterns that differentiate fitness outcomes, adapted strains were generated with increased fitness in the presence of antibiotics by serial passaging wildtype T4 and 19F in the presence of increasing amounts of antibiotics. Four independent adapted populations for each strain were selected on individual antibiotics. These adapted strains could grow in the presence of antibiotic at 1.5xMIC of the wildtype strain, albeit with a small growth defect (FIGS. 6A-6E & 6F). In parallel, RNA-Seq was performed on S. pneumoniae strains D39 and T4 in a chemically defined medium, and media from which either uracil, Glycine or L-Valine was removed, which are essential for D39 but not T4. This enabled the potential identification of a common stress signature that is shared between antibiotic exposure and nutrient deprivation, and across multiple strains. Lastly, D39 was adapted to grow in the absence of each individual nutrient, after which RNA-Seq was repeated for adapted clones (Table 1 lists all 24 strains, 67 populations and 267 RNA-Seq experiments).
(§2) S. pneumoniae strain TIGR4 (T4; NC_003028.3) is a serotype 4 strain originally isolated from a patient^3,4, Taiwan-19F (19F; NC_012469.1) is a multi-drug resistant strain^5,6 and D39 (NC_008533) is a commonly used serotype 2 strain originally isolated from a patient about 90 years ago^7. Strain PG1 and PG19 were isolated from adults with pneumococcal bacteremia infection and included in the Pneumococcal Bacteremia Collection Nijmegen (PBCN)^8. All S. pneumoniae gene numbers refer to the T4 genome. Correspondence between homologous genes among S. pneumoniae strains and gene function annotations are described herewith. Escherichia coli strain AR538, Klebsiella pneumoniae strain AR497 and Salmonella enterica subsp Typhimurium strain AR635 were clinical isolates obtained from the Center of Disease Control (CDC). Staphylococcus aureus strain MN6 was kindly provided by George Sakoulas (Center of Immunity, Infection & Inflammation, UCSD School of Medicine). Unless otherwise specified, S. pneumoniae strains were cultivated in Todd Hewitt medium with 5% yeast extract (THY) with 5 μL/mL oxyrase (Oxyrase, Inc) or on sheep's blood agar plates (Northeastern Laboratories) at 37° C. with 5% CO2. A. baumannii, E. coll. K. pneumoniae, S. aureus and S. Typhimurium were cultured in Mueller Hinton broth II (Sigma) at 37° C. with 220 rpm constant shaking. Tn-Seq and RNA-Seq experiments of S. pneumoniae under nutrient-depletion and antibiotic conditions were performed in chemically defined medium (CDM)^9 and semi-defined minimal medium (SDMM)^10, respectively. RNA-Seq experiments for A. baumannii, S. Typhimurium, E. coll. K. pneumoniae, and S. aureus were performed in Mueller Hinton broth II. Single strain growth assays were performed at least three times using 96-well plates by taking OD600 measurements on a Tecan Infinite 200 PRO plate reader.

[1] = tested on: S. pneumoniae strain TIGR4 (T4); assay: Determination of relative minimal inhibitory concentration (MIC); conditions: lowest concentration that abolishes bacterial growth, 16 hours, 37° C.; for MIC: Streptococcus pneumoniae, read-out: 1x MIC for T4
Description: (§3) Each concentration was tested in triplicate. Growth was monitored on a Tecan Infinite 200 PRO plate reader at 37° C. for 16 hours. MIC is determined as the lowest concentration that abolishes bacterial growth (FIGS. 6A-6H).

S. pneumoniae 19F = assay: Fitness outcome under antibiotic exposure (growth curve assay); conditions: for Fitness: S. pneumoniae 19F wild-type, growth curves; for Survive (real survival outcome): strain 19F, Adapted FALSE
Description: as §1, §2

[2] = tested on: S. pneumoniae strain Taiwan-19F (19F); assay: Determination of relative minimal inhibitory concentration (MIC); conditions: for MIC: Streptococcus pneumoniae, 16 h, read-out: 1x MIC for 19F
Description: as §3

S. pneumoniae strain D39 = assay: Real survival outcome (fitness outcome) under nutrient condition; conditions: strain D39, Adapted FALSE, Concentration NA
[3] = tested on: adapted S. pneumoniae strain D39; assay: Real survival outcome (fitness outcome) under nutrient condition, adapted strain; conditions: strain D39, Adapted TRUE, Concentration NA
[4] = tested on: antibiotic-adapted S. pneumoniae 19F (a19F); assay: Fitness outcome under antibiotic exposure (growth curve assay); conditions: for Fitness: a19F, 19F adapted to the respective antibiotic, 1xMIC and 1.5-2xMIC, growth curves; for Survive (real survival outcome): strain 19F, Adapted TRUE
Description: as §1, §2
(§4) D39 was used as the parental strain in nutrient-depletion evolution experiments; T4 and 19F were used as parental strains in antibiotic evolution experiments. […] Four replicate populations were serial passaged in CDM or SDMM as controls to identify background adaptations in nutrient or antibiotic adaptation experiments, respectively. […]

[5] = tested on: antibiotic-adapted S. pneumoniae T4 (aT4); assay: as above; conditions: for Survive (real survival outcome): strain T4, Adapted TRUE
Description: as §1, §2, §4

CC1(C)S[C@@H]2[C@H](NC(=O)[C@H](N)c3ccc(O)cc3)C(=O)N2[C@H]1C(=O)O [Amoxicillin, amoxicillin]
Fitness (S. pneumoniae T4): Low | Survive (real survival outcome) (S. pneumoniae T4; Concentration NA): FALSE | MIC [1]: 0.12 µg/mL (≈ 0.328 µM)

CO/N=C(\C(=O)N[C@@H]1C(=O)N2C(C(=O)[O-])=C(C[N+]3(C)CCCC3)CS[C@H]12)c1csc(N)n1 [Cefepime, cefepime]
Fitness (S. pneumoniae T4): Low | Survive (real survival outcome) (S. pneumoniae T4; Concentration L (low)): FALSE | Fitness (S. pneumoniae 19F): Low, and High | Survive (real survival outcome) (S. pneumoniae 19F; Concentration H (high)): FALSE | Survive (real survival outcome) (S. pneumoniae 19F; Concentration L (low)): TRUE | MIC [1]: 0.8 µg/mL (≈ 1.66 µM) | MIC [2]: 2.2 µg/mL (≈ 4.58 µM)

CO/N=C(\C(=O)N[C@@H]1C(=O)N2C(C(=O)O)=C(CSc3nc(=O)c(=O)[nH]n3C)CS[C@H]12)c1csc(N)n1 [Ceftriaxone, ceftriaxone]
Fitness (S. pneumoniae T4): Low | Survive (real survival outcome) (S. pneumoniae T4; Concentration NA): FALSE | MIC [1]: 0.007 µg/mL (≈ 0.0126 µM)

CCCCCCCCCC(=O)N[C@@H](Cc1c[nH]c2ccccc12)C(=O)N[C@H](CC(N)=O)C(=O)N[C@@H](CC(=O)O)C(=O)N[C@@H]1C(=O)NCC(=O)N[C@@H](CCCN)C(=O)N[C@@H](CC(=O)O)C(=O)N[C@H](C)C(=O)N[C@@H](CC(=O)O)C(=O)NCC(=O)N[C@H](CO)C(=O)N[C@@H]([C@H](C)CC(=O)O)C(=O)N[C@@H](CC(=O)c2ccccc2N)C(=O)O[C@@H]1C [Daptomycin, daptomycin]
Fitness (S. pneumoniae T4): Low | Survive (real survival outcome) (S. pneumoniae T4; Concentration L (low)): FALSE | Fitness (S. pneumoniae 19F): Low | Survive (real survival outcome) (S. pneumoniae 19F; Concentration L (low)): FALSE | MIC [1]: 35 µg/mL (≈ 21.6 µM) | MIC [2]: 35 µg/mL (≈ 21.6 µM)

NCC(=O)O [GLY]
Survive (real survival outcome) (S. pneumoniae strain D39): FALSE | Survive (real survival outcome) (S. pneumoniae T4; Concentration NA): TRUE

C[C@@H](O)[C@H]1C(=O)N2C(C(=O)O)=C(SCCN=CN)C[C@H]12 [Imipenem, imipenem]
MIC [1]: 0.03 µg/mL (≈ 0.1 µM)

NC[C@H]1O[C@H](O[C@H]2[C@H](O)[C@@H](O[C@H]3O[C@H](CO)[C@@H](O)[C@H](N)[C@H]3O)[C@H](N)C[C@@H]2N)[C@H](O)[C@@H](O)[C@@H]1O [Kanamycin, kanamycin]
MIC [1]: 90 µg/mL (≈ 186 µM) | MIC [2]: 90 µg/mL (≈ 186 µM)

C[C@H]1COc2c(N3CCN(C)CC3)c(F)cc3c(=O)c(C(=O)O)cn1c23 [Levofloxacin, levofloxacin]
MIC [1]: 1 µg/mL (≈ 2.77 µM) | MIC [2]: 1.1 µg/mL (≈ 3.04 µM)

CC(=O)NC[C@H]1CN(c2ccc(N3CCOCC3)c(F)c2)C(=O)O1 [Linezolid, linezolid]
Fitness (S. pneumoniae T4): Low | Survive (real survival outcome) (S. pneumoniae T4; Concentration NA): FALSE | MIC [1]: 0.5 µg/mL (≈ 1.48 µM)

COc1c(N2C[C@@H]3CCCN[C@@H]3C2)c(F)cc2c(=O)c(C(=O)O)cn(C3CC3)c12 [Moxifloxacin, moxifloxacin]
MIC [1]: 0.45 µg/mL (≈ 1.12 µM)

CO[C@H]1/C=C/O[C@@]2(C)Oc3c(C)c(O)c4c(O)c(c(/C=N/N5CCN(C)CC5)c(O)c4c3C2=O)NC(=O)/C(C)=C\C=C\[C@H](C)[C@H](O)[C@@H](C)[C@@H](O)[C@@H](C)[C@H](OC(C)=O)[C@@H]1C [Rifampicin, rifampicin]
MIC [1]: 0.035 µg/mL (≈ 0.0425 µM) | MIC [2]: 0.035 µg/mL (≈ 0.0425 µM)

CN(C)[C@@H]1C(O)=C(C(N)=O)C(=O)[C@@]2(O)C(O)=C3C(=O)c4c(O)cccc4[C@@](C)(O)[C@H]3C[C@@H]12 [Tetracycline, tetracycline]
MIC [1]: 8 µg/mL (≈ 18 µM) | MIC [2]: 22 µg/mL (≈ 49.5 µM)

NC[C@H]1O[C@H](O[C@H]2[C@H](O)[C@@H](O[C@H]3O[C@H](CO)[C@@H](O)[C@H](N)[C@H]3O)[C@H](N)C[C@@H]2N)[C@H](N)C[C@@H]1O [Tobramycin, tobramycin]
Fitness (S. pneumoniae T4): Low | Survive (real survival outcome) (S. pneumoniae T4; Concentration NA): FALSE | MIC [1]: 175 µg/mL (≈ 374 µM)

O=c1cc[nH]c(=O)[nH]1 [URA]
Survive (real survival outcome) (S. pneumoniae strain D39): FALSE | Survive (real survival outcome) [3]: TRUE | Survive (real survival outcome) (S. pneumoniae T4; Concentration NA): TRUE

CC(C)[C@H](N)C(=O)O [VAL]
Survive (real survival outcome) (S. pneumoniae strain D39): FALSE | Survive (real survival outcome) [3]: TRUE | Survive (real survival outcome) (S. pneumoniae T4; Concentration NA): TRUE

CN[C@H](CC(C)C)C(=O)N[C@H]1C(=O)N[C@@H](CC(N)=O)C(=O)N[C@H]2C(=O)N[C@H]3C(=O)N[C@H](C(=O)N[C@H](C(=O)O)c4cc(O)cc(O)c4-c4cc3ccc4O)[C@H](O)c3ccc(c(Cl)c3)Oc3cc2cc(c3O[C@@H]2O[C@H](CO)[C@@H](O)[C@H](O)[C@H]2O[C@H]2C[C@](C)(N)[C@H](O)[C@H](C)O2)Oc2ccc(cc2Cl)[C@H]1O [Vancomycin, vancomycin]
Fitness [4]: High | Survive (real survival outcome) ([4]; Concentration H (high)): TRUE | Survive (real survival outcome) ([4]; Concentration L (low)): TRUE | Fitness ([5]; aT4, T4 adapted to the respective antibiotic, 1xMIC and 1.5-2xMIC, growth curves): High | Survive (real survival outcome) ([5]; Concentration H (high)): TRUE | Survive (real survival outcome) ([5]; Concentration L (low)): TRUE | Fitness (S. pneumoniae T4): Low | Survive (real survival outcome) (S. pneumoniae T4; Concentration L (low)): FALSE | Fitness (S. pneumoniae 19F): Low | Survive (real survival outcome) (S. pneumoniae 19F; Concentration L (low)): FALSE | MIC [1]: 0.24 µg/mL (≈ 0.166 µM) | MIC [2]: 0.24 µg/mL (≈ 0.166 µM)

cotrimoxazole
Fitness (S. pneumoniae T4): Low | Survive (real survival outcome) (S. pneumoniae T4; Concentration NA): FALSE | 1x MIC for T4 [1]: 6.5 µg/mL

penicillin
Fitness [4]: High | Survive (real survival outcome) ([5]; Concentration H (high)): TRUE | Survive (real survival outcome) ([5]; Concentration L (low)): TRUE | Fitness (S. pneumoniae T4): Low | Survive (real survival outcome) (S. pneumoniae T4; Concentration L (low)): FALSE | Fitness (S. pneumoniae 19F): High | Survive (real survival outcome) (S. pneumoniae 19F; Concentration L (low)): TRUE | 1x MIC for T4 [1]: 0.03 µg/mL | 1x MIC for 19F ([2]; S. pneumoniae 19F, lowest concentration that abolishes bacterial growth, 16 hours, 37° C.): 2.25 µg/mL
